Measured values published in ChEMBL document CHEMBL4706710, “Synthesis and evaluation of novel thiosemicarbazone and semicarbazone analogs with both anti-proliferative and anti-metastatic activities against triple negative breast cancer” (Bioorg Med Chem, 2021).
Activity calls are given as the source filed them. No cut-off for these calls is given here.

Key:
MDA-MB-231 [1] = assay: Antiproliferative activity against human MDA-MB-231 cells assessed as reduction in cell viability after 48 hrs by MTT assay; assay type: functional, cell-based; details: MDA-MB-231, 48 h
A549 = assay: Antiproliferative activity against human A549 cells assessed as reduction in cell viability after 48 hrs by MTT assay; assay type: functional, cell-based; details: A549, 48 h
HT-29 = assay: Antiproliferative activity against human HT-29 cells assessed as reduction in cell viability after 48 hrs by MTT assay; assay type: functional, cell-based; details: HT-29, 48 h
MCF7 [2] = assay: Antiproliferative activity against human MCF7 cells assessed as reduction in cell viability after 48 hrs by MTT assay; assay type: functional, cell-based; details: MCF7, 48 h
MCF7 [3] = assay: Potency index, ratio of hecogenin IC50 to test compound IC50 for antiproliferative activity against human MCF7 cells; assay type: functional
MDA-MB-231 [4] = assay: Potency index, ratio of hecogenin IC50 to test compound IC50 for antiproliferative activity against human MDA-MB-231 cells; assay type: functional
MDA-MB-231 [5] = assay: Induction of apoptosis in human MDA-MB-231 cells assessed as late apoptotic cells at 10 uM after 9 hrs by annexin V-FITC/propidium iodide staining based flow cytometric analysis (reference value: 3.1%); assay type: functional
MDA-MB-231 [6] = assay: Induction of apoptosis in human MDA-MB-231 cells assessed as viable cells at 10 uM after 6 hrs by annexin V-FITC/propidium iodide staining based flow cytometric analysis (reference value: 91.2%); assay type: functional; details: read-out: Activity
MDA-MB-231 [7] = assay: Induction of cell cycle arrest in human MDA-MB-231 cells assessed as accumulation at sub-G1 phase after 48 hrs by propidium iodide staining based flow cytometric analysis; assay type: functional; details: dose 10-40 µM
MDA-MB-231 [8] = assay: Induction of apoptosis in human MDA-MB-231 cells assessed as necrotic cells at 10 uM after 3 hrs by annexin V-FITC/propidium iodide staining based flow cytometric analysis (reference value: 3%); assay type: functional
MDA-MB-231 [9] = assay: Induction of apoptosis in human MDA-MB-231 cells assessed as increase in late apoptotic cells at 10 uM by annexin V-FITC/propidium iodide staining based flow cytometric analysis; assay type: functional, cell-based; details: time 3-9 hrs, TDE = time-dependent effect
MDA-MB-231 [10] = assay: Induction of cell cycle arrest in human MDA-MB-231 cells assessed as accumulation at sub-G1 phase at 10 uM after 48 hrs by propidium iodide staining based flow cytometric analysis (reference value: 3.25%); assay type: functional
MCF7 [11] = assay: Induction of cell cycle arrest in human MCF7 cells assessed as accumulation at sub-G1 phase at 20 uM after 48 hrs by propidium iodide staining based flow cytometric analysis (reference value: 3.04%); assay type: functional
MDA-MB-231 [12] = assay: Inhibition of cell migration in human MDA-MB-231 cells at 20 uM after 20 hrs by inverted microscopic method; assay type: functional, cell-based
HUVEC = assay: Cytotoxicity against human HUVEC cells assessed as reduction in cell viability after 48 hrs by MTT assay; assay type: cell-based
MCF7 [13] = assay: Induction of cell cycle arrest in human MCF7 cells assessed as accumulation at sub-G1 phase after 48 hrs by propidium iodide staining based flow cytometric analysis; assay type: functional; details: dose 10-40 µM
MDA-MB-231 [14] = assay: Induction of apoptosis in human MDA-MB-231 cells assessed as late apoptotic cells at 10 uM after 6 hrs by annexin V-FITC/propidium iodide staining based flow cytometric analysis (reference value: 3.1%); assay type: functional
MDA-MB-231 [15] = assay: Induction of apoptosis in human MDA-MB-231 cells assessed as late apoptotic cells at 10 uM after 3 hrs by annexin V-FITC/propidium iodide staining based flow cytometric analysis (reference value: 3.1%); assay type: functional
MDA-MB-231 [16] = assay: Antiinvasive activity against in human MDA-MB-231 cells at 20 uM after 24 hrs by matrigel coated transwell assay; assay type: functional, cell-based
MDA-MB-231 [17] = assay: Induction of apoptosis in human MDA-MB-231 cells assessed as early apoptotic cells at 10 uM after 9 hrs by annexin V-FITC/propidium iodide staining based flow cytometric analysis (reference value: 2.7%); assay type: functional
MDA-MB-231 [18] = assay: Induction of apoptosis in human MDA-MB-231 cells assessed as increase in early apoptotic cells at 10 uM by annexin V-FITC/propidium iodide staining based flow cytometric analysis; assay type: functional, cell-based; details: time 3-9 hrs, TDE = time-dependent effect
MCF7 [19] = assay: Induction of cell cycle arrest in human MCF7 cells assessed as accumulation at sub-G1 phase at 40 uM after 48 hrs by propidium iodide staining based flow cytometric analysis (reference value: 3.04%); assay type: functional
MDA-MB-231 [20] = assay: Induction of apoptosis in human MDA-MB-231 cells assessed as early apoptotic cells at 10 uM after 3 hrs by annexin V-FITC/propidium iodide staining based flow cytometric analysis (reference value: 2.7%); assay type: functional
MDA-MB-231 [21] = assay: Induction of cell cycle arrest in human MDA-MB-231 cells assessed as accumulation at sub-G1 phase at 20 uM after 48 hrs by propidium iodide staining based flow cytometric analysis (reference value: 3.25%); assay type: functional
MDA-MB-231 [22] = assay: Induction of apoptosis in human MDA-MB-231 cells assessed as viable cells at 10 uM after 9 hrs by annexin V-FITC/propidium iodide staining based flow cytometric analysis (reference value: 91.2%); assay type: functional; details: read-out: Activity
MDA-MB-231 [23] = assay: Induction of apoptosis in human MDA-MB-231 cells assessed as viable cells at 10 uM after 3 hrs by annexin V-FITC/propidium iodide staining based flow cytometric analysis (reference value: 91.2%); assay type: functional; details: read-out: Activity
MDA-MB-231 [24] = assay: Induction of apoptosis in human MDA-MB-231 cells assessed as necrotic cells at 10 uM after 6 hrs by annexin V-FITC/propidium iodide staining based flow cytometric analysis (reference value: 3%); assay type: functional
MDA-MB-231 [25] = assay: Induction of apoptosis in human MDA-MB-231 cells assessed as necrotic cells at 10 uM after 9 hrs by annexin V-FITC/propidium iodide staining based flow cytometric analysis (reference value: 3%); assay type: functional
MDA-MB-231 [26] = assay: Induction of cell cycle arrest in human MDA-MB-231 cells assessed as accumulation at sub-G1 phase at 40 uM after 48 hrs by propidium iodide staining based flow cytometric analysis (reference value: 3.25%); assay type: functional
MDA-MB-231 [27] = assay: Induction of apoptosis in human MDA-MB-231 cells assessed as early apoptotic cells at 10 uM after 6 hrs by annexin V-FITC/propidium iodide staining based flow cytometric analysis (reference value: 2.7%); assay type: functional
MCF7 [28] = assay: Induction of cell cycle arrest in human MCF7 cells assessed as accumulation at sub-G1 phase at 10 uM after 48 hrs by propidium iodide staining based flow cytometric analysis (reference value: 3.04%); assay type: functional

CC(=O)O[C@H]1CC[C@@]2(C)[C@@H](CC[C@@H]3[C@@H]2CC(=O)N[C@]2(C)C(/C(C)=N/NC(=S)Nc4ccc(C(F)(F)F)cc4)=CC[C@@H]32)C1
IC50 (MDA-MB-231 [1]): 25.4 µM | IC50 (A549): 36.3 µM | IC50 (HT-29): 34.1 µM | IC50 (MCF7 [2]): 22.7 µM

CC(=O)O[C@H]1CC[C@@]2(C)[C@@H](CC[C@H]3[C@@H]4CC=C(/C(C)=N/NC(=S)Nc5ccccc5)[C@@]4(C)C(=O)C[C@@H]32)C1
IC50 (MDA-MB-231 [1]): 10.4 µM | Ratio IC50 (MCF7 [3]): >10 | IC50 (A549): 7.68 µM | IC50 (HT-29): 10.6 µM | IC50 (MCF7 [2]): 2.16 µM | Ratio IC50 (MDA-MB-231 [4]): >10

CC(=O)O[C@H]1CC[C@@]2(C)[C@@H](CC[C@H]3[C@@H]4CC=C(/C(C)=N/NC(=S)Nc5ccccc5C)[C@@]4(C)C(=O)C[C@@H]32)C1
IC50 (MDA-MB-231 [1]): 14.1 µM | IC50 (A549): 17.1 µM | IC50 (HT-29): 13.2 µM | IC50 (MCF7 [2]): 7.08 µM

CC(=O)O[C@H]1CC[C@@]2(C)[C@@H](CC[C@@H]3[C@@H]2CC(=O)N[C@]2(C)C(/C(C)=N/NC(N)=O)=CC[C@@H]32)C1
IC50 (MDA-MB-231 [1]): 19.2 µM | IC50 (A549): 29 µM | IC50 (HT-29): 28.5 µM | IC50 (MCF7 [2]): 17.4 µM

CC(=O)O[C@H]1CC[C@@]2(C)[C@@H](CC[C@@H]3[C@@H]2CC(=O)N[C@]2(C)C(/C(C)=N/NC(=S)Nc4ccccc4C)=CC[C@@H]32)C1
IC50 (MDA-MB-231 [1]): > 40 µM | IC50 (A549): > 40 µM | IC50 (HT-29): 37.5 µM | IC50 (MCF7 [2]): 29.6 µM

CC(=O)O[C@H]1CC[C@@]2(C)[C@@H](CC[C@@H]3[C@@H]2CC(=O)N[C@]2(C)C(/C(C)=N/NC(N)=S)=CC[C@@H]32)C1
IC50 (MDA-MB-231 [1]): 16.6 µM | IC50 (A549): 28.9 µM | IC50 (HT-29): 27 µM | IC50 (MCF7 [2]): 15.1 µM

CC(=O)O[C@H]1CC[C@@]2(C)[C@@H](CC[C@H]3[C@@H]4CC=C(/C(C)=N/NC(N)=S)[C@@]4(C)C(=O)C[C@@H]32)C1
Activity (MDA-MB-231 [5]): 15.2% | viability at 10 µM (MDA-MB-231 [6]): 74.1% | Activity (MDA-MB-231 [7]): Dose-dependent effect | IC50 (MDA-MB-231 [1]): 2.67 µM | Activity (MDA-MB-231 [8]): 7.2% | Activity (MDA-MB-231 [9]): Tde | Activity (MDA-MB-231 [10]): 14.82% | Activity (MCF7 [11]): 44.95% | inhibition (MDA-MB-231 [12]): Active | IC50 (HUVEC): > 100 µM | Activity (MCF7 [13]): Dose-dependent effect | Ratio IC50 (MCF7 [3]): >10 | Activity (MDA-MB-231 [14]): 12.1% | Activity (MDA-MB-231 [15]): 9.5% | Activity (MDA-MB-231 [16]): Active | Activity (MDA-MB-231 [17]): 7.8% | Activity (MDA-MB-231 [18]): Tde | Activity (MCF7 [19]): 67.72% | Activity (MDA-MB-231 [20]): 5.9% | IC50 (A549): 5.44 µM | Activity (MDA-MB-231 [21]): 39.79% | viability at 10 µM (MDA-MB-231 [22]): 68.8% | viability at 10 µM (MDA-MB-231 [23]): 77.4% | Activity (MDA-MB-231 [24]): 7.5% | IC50 (HT-29): 6.72 µM | Activity (MDA-MB-231 [25]): 8.2% | Activity (MDA-MB-231 [26]): 54.95% | IC50 (MCF7 [2]): 1.59 µM | Activity (MDA-MB-231 [27]): 6.3% | Activity (MCF7 [28]): 25.52% | Ratio IC50 (MDA-MB-231 [4]): >10

CC(=O)O[C@H]1CC[C@@]2(C)[C@@H](CC[C@H]3[C@@H]4CC=C(/C(C)=N/NC(=S)Nc5ccc(C(F)(F)F)cc5)[C@@]4(C)C(=O)C[C@@H]32)C1
IC50 (MDA-MB-231 [1]): 11.8 µM | IC50 (A549): 9.75 µM | IC50 (HT-29): 11.3 µM | IC50 (MCF7 [2]): 6.86 µM

CC(=O)O[C@H]1CC[C@@]2(C)[C@@H](CC[C@H]3[C@@H]4CC=C(/C(C)=N/NC(N)=O)[C@@]4(C)C(=O)C[C@@H]32)C1
IC50 (MDA-MB-231 [1]): 5.89 µM | IC50 (HUVEC): > 100 µM | Ratio IC50 (MCF7 [3]): >10 | IC50 (A549): 6.84 µM | IC50 (HT-29): 7.69 µM | IC50 (MCF7 [2]): 1.74 µM | Ratio IC50 (MDA-MB-231 [4]): >10

CC(=O)O[C@H]1CC[C@@]2(C)[C@@H](CC[C@@H]3[C@@H]2CC(=O)N[C@]2(C)C(/C(C)=N/NC(=S)Nc4ccccc4)=CC[C@@H]32)C1
IC50 (MDA-MB-231 [1]): 25.9 µM | IC50 (A549): 35.1 µM | IC50 (HT-29): 34 µM | IC50 (MCF7 [2]): 19.1 µM

C[C@@H]1CC[C@@]2(OC1)O[C@H]1C[C@H]3[C@@H]4CC[C@H]5C[C@@H](O)CC[C@]5(C)[C@H]4CC(=O)[C@]3(C)[C@H]1[C@@H]2C
IC50 (MDA-MB-231 [1]): 31.2 µM | IC50 (HUVEC): > 100 µM | IC50 (A549): > 40 µM | IC50 (HT-29): > 40 µM | IC50 (MCF7 [2]): 28.7 µM

CC(=O)O[C@H]1CC[C@@]2(C)[C@@H](CC[C@@H]3[C@@H]2CC(=O)N[C@]2(C)C(/C(C)=N/NC(=O)Nc4ccccc4)=CC[C@@H]32)C1
IC50 (MDA-MB-231 [1]): > 40 µM | IC50 (A549): > 40 µM | IC50 (HT-29): > 40 µM | IC50 (MCF7 [2]): 35.8 µM

CC(=O)O[C@H]1CC[C@@]2(C)[C@@H](CC[C@H]3[C@@H]4CC=C(/C(C)=N/NC(=O)Nc5ccccc5)[C@@]4(C)C(=O)C[C@@H]32)C1
IC50 (MDA-MB-231 [1]): 15.5 µM | IC50 (A549): 22.7 µM | IC50 (HT-29): 17.6 µM | IC50 (MCF7 [2]): 11.6 µM
